# Reference: US10105400B2, “Composition of chicken liver hydrolysates and method for improving alcohol metabolism, as well as preventing and treating liver fibrosis” (NATIONAL TAIWAN UNIVERSITY, priority 2016, dated 2018)
# Marks after values point to notes of the source that are not given here.
# Legend:
# ABTS+ free radical = assay: Trolox equivalent antioxidant capacity (TEAC) of sera and livers, alcohol liquid diet mice; assay type: in vivo, C57/BL/6J (B6) mice; conditions: SLM group: 150 mg/kg-bw silymarin oral gavage, 8 weeks, ethanol diet
# Description: (§1) Forty eight male C57/BL/6J (B6) mice of 8-week old were purchased from the Laboratory Animal Center of National Taiwan University. The body weight of these B6 mice were approximately 19 g to 21 g. Two mice were housed in one cage in an animal room at 22±2° C. with a 12/12 hr light-dark cycle. After one week of acclimation, the mice were randomly divided into 6 groups: […]
# (§2) (f) The silymarin group (The SLM group): administered with the Lieber-DeCarli regular ethanol diet and 150 mg/kg-bw of silymarin in 0.2 mL ddH2O by oral gavage.
# (§3) The animal experiment lasted for 8 weeks; the body weight of each mouse was recorded at the beginning and the end of the experiment. The daily liquid feed (mL) intakes as a food intake of each mouse was calculated. […]
# (§4) The experiment was conducted by a complete randomized design. […] The data was analyzed by one way-analysis of variance (ANOVA) and Fisher's Least Significant Different test to distinguish significant differences among groups. […]
# (§5) To evaluate the antioxidative ability of the composition of the chicken liver hydrolysates, the ABTS^+ free radical clearing ability is tested and represented as trolox equivalent antioxidant capacity (TEAC). The lipid peroxidation is also determined by thiobarbituric acid reactive substance (TBARS) value.
# [1] = Body weight, food intake and relative sizes of organs and tissues of mice fed alcohol liquid diet; assay type: in vivo, C57/BL/6J (B6) mice; conditions: SLM group: 150 mg/kg-bw silymarin oral gavage, 8 weeks, ethanol diet
# Description: Forty eight male C57/BL/6J (B6) mice of 8-week old were purchased from the Laboratory Animal Center of National Taiwan University. The body weight of these B6 mice were approximately 19 g to 21 g. Two mice were housed in one cage in an animal room at 22±2° C. with a 12/12 hr light-dark cycle. After one week of acclimation, the mice were randomly divided into 6 groups:
# (a) The control group (the CON group): administered with the control liquid diet and 0.2 mL ddH2O by oral gavage.
# (b) The ethanol group (the EtOH group): administered with the Lieber-DeCarli regular ethanol diet and 0.2 mL ddH2O by oral gavage.
# (c) The composition of the chicken liver hydrolysates with low dosage (The CLH-L group): administered with the Lieber-DeCarli regular ethanol diet and 80 mg/kg-body weight (bw) of the composition of the chicken liver hydrolysates in 0.2 mL ddH2O by oral gavage.
# (d) The composition of the chicken liver hydrolysates with medium dossage (The CLH-M group): administered with the Lieber-DeCarli regular ethanol diet and 320 mg/kg-bw of the composition of the chicken liver hydrolysates CLH in 0.2 mL ddH2O by oral gavage.
# (e) The composition of the chicken liver hydrolysates with high dosage (The CLH-H group): administered with the Lieber-DeCarli regular ethanol diet and 1280 mg/kg-bw of the composition of the chicken liver hydrolysates in 0.2 mL ddH2O by oral gavage.
# as §2
# The animal experiment lasted for 8 weeks; the body weight of each mouse was recorded at the beginning and the end of the experiment. The daily liquid feed (mL) intakes as a food intake of each mouse was calculated. Mice were sacrificed after 8 weeks and the blood, heart, kidney, epididymal fat tissue, and perirenal fat tissue were all collected, weighted and then stored at −80° C. for further analysis.
# The experiment was conducted by a complete randomized design. The raw data was presented as “mean±standard error of the mean (SEM)”. The data was analyzed by one way-analysis of variance (ANOVA) and Fisher's Least Significant Different test to distinguish significant differences among groups. All statistical analysis of data was performed by SAS9.2 software (SAS Institute Inc, Cary, N.C., USA). If there is no significant difference between two groups, these groups were labeled with one identical letter.
# lipid peroxidation = assay: Thiobarbituric acid reactive substance (TBARS) value of sera and livers, alcohol liquid diet mice; assay type: in vivo, C57/BL/6J (B6) mice; conditions: SLM group: 150 mg/kg-bw silymarin oral gavage, 8 weeks, ethanol diet
# Description: as §1, §2, §3, §4, §5
# [2] = Body weight and feed efficiency, thioacetamide (TAA) liver fibrosis model; assay type: in vivo, Wistar rats; conditions: CNS group: 200 mg/kg-bw carnosine oral gavage daily, 10 weeks, TAA 100 mg/kg-bw i.p.
# Description: (§6) Forty male Wistar rats of 5-week old were purchased from BioLASCO Taiwan Co., Ltd. (Taipei, Taiwan). Two rats were housed in one cage in an animal room at 22±2° C. with a 12/12 h light-dark cycle. After one week of acclimation, the mice were randomly divided into 5 groups:
# (a) The control group (The CON group): intraperitoneal injection of 0.3 mL normal saline, and administration of 0.5 mL ddH2O by oral gavage;
# (§7) (b) The thioacetamide group (The TAA group): intraperitoneal injection of 100 mg TAA/kg-body weight (bw) in 0.3 mL ddH2O and administration of 0.5 mL ddH2O by oral gavage;
# (§8) (c) The composition of the chicken liver hydrolysates with low dosage (The CLH-L group): intraperitoneal injection of 100 mg TAA/kg-bw in 0.3 mL ddH2O and administration of 200 mg/kg-bw CLH in 0.5 mL ddH2O by oral gavage;
# (§9) (d) The composition of the chicken liver hydrolysates with high dosage (The CLH-H group): intraperitoneal injection of 100 mg TAA/kg-bw in 0.3 mL ddH2O and administration of 600 mg/kg-bw CLH in 0.5 mL ddH2O by oral gavage; and (e) The carnosine group (The CNS group): intraperitoneal injection of 100 mg TAA/kg-bw in 0.3 mL ddH2O and administration of 200 mg/kg-bw carnosine in 0.5 mL ddH2O by oral gavage;
# (§10) The experiment lasted for 10 weeks. The rats were injected with ddH2O or TAA intraperitoneally once a week and administered of ddH2O, the composition of the chicken liver hydrolysates or carnosine every day. One kilogram of the chow diet comprises 487 g carbohydrate, 239 g protein, 50 g fat, 51 g fibre and 70 g ash (Laboratory Rodent Diet 5001, PMI Nutrition International/Purina Mills LLC, Richmond, Ind., USA). All rats were fasted overnight before euthanized at the last day of experiment, the organs and the tissues were collected and weighted, and stored at −80° C. for further analysis.
# (§11) The experiment was conducted by a complete randomized design. The raw data was expressed as “mean±SEM”. The data was analyzed by analysis of variance (ANOVA) and Fisher's Least Significant Different (LSD) test was used to distinguish significant differences among groups. […]
# [3] = tested on: thioacetamide (TAA)-treated mice; assay: Biochemical indexes of liver in sera, TAA liver fibrosis model; assay type: in vivo, Wistar rats; conditions: serum; CNS group: 200 mg/kg-bw carnosine oral gavage daily, 10 weeks, TAA 100 mg/kg-bw i.p.
# Description: as §6, §7, §8, §9, §10
# (§12) The experiment was conducted by a complete randomized design. The raw data was expressed as “mean±SEM”. The data was analyzed by analysis of variance (ANOVA) and Fisher's Least Significant Different (LSD) test was used to distinguish significant differences among groups. All statistical analysis of the data was performed by SAS9.2 software (SAS Institute Inc, Cary, N.C., USA). If there is no significant difference between two groups, these groups werelabeled with one identical letter.
# [4] = tested on: thioacetamide (TAA)-treated; assay: as above; assay type: in vivo, Wistar rats; conditions: serum; CNS group: 200 mg/kg-bw carnosine oral gavage daily, 10 weeks, TAA 100 mg/kg-bw i.p.
# Description: as §6, §7, §8, §9, §10, §12
# [5] = Relative sizes of organs and tissues, TAA liver fibrosis model; assay type: in vivo, Wistar rats
# Description: as §6, §7, §8, §9, §10, §12
# collagen = assay: Collagen deposition in livers (Sirius red stain, collagen kit), TAA model; assay type: in vivo, Wistar rats
# Description: as §6, §7
# (c) The composition of the chicken liver hydrolysates with low dosage (The CLH-L group): intraperitoneal injection of 100 mg TAA/kg-bw in 0.3 mL ddH2O and administration of 200 mg/kg-bw CLH in 0.5 mL ddH2O by oral gavage; […]
# as §11
# Sirius red dye can bind to the helical structure of the collagen, and thus the Sirius red stain assay can be used to examine the deposition of collagen in livers. Furthermore, liver collagen levels of the mice are also determined by using commercial kits (Chondres Inc., Redmond, Wash., USA). […] The collagen content in the sample is calculated by using a standard curve plotted by bovine Type I collagen and expressed as μg/mg-protein. […]
# [6] = CNS group: 200 mg/kg-bw carnosine oral gavage daily, 10 weeks, TAA 100 mg/kg-bw i.p.
smiles,measurement,setting,value
"COc1cc(C2Oc3cc([C@H]4Oc5cc(O)cc(O)c5C(=O)[C@@H]4O)ccc3OC2CO)ccc1O (stereo partly drawn) [SLM, silymarin]",TEAC Liver,ABTS+ free radical,294.16 ± 14.82^a nmole/mg-protein
same,TEAC Serum,ABTS+ free radical,4.48 ± 0.18^b nmole/mL
same,Relative size Epididymal fat tissue,[1],1.68 ± 0.15^bc g/100 g-bw
same,Relative size Heart,[1],0.45 ± 0.01^ab g/100 g-bw
same,Relative size Kidney,[1],1.19 ± 0.04^ab g/100 g-bw
same,Relative size Liver,[1],4.45 ± 0.06^a g/100 g-bw
same,Relative size Perirenal fat tissue,[1],0.37 ± 0.04^b g/100 g-bw
same,Relative size Spleen,[1],0.18 ± 0.01^b g/100 g-bw
same,TBARS Liver,lipid peroxidation,0.64 ± 0.12^ab nmole MDA eq./mg-protein
same,TBARS Serum,lipid peroxidation,52.62 ± 2.26^bc nmole MDA eq./mL
"NCCC(=O)N[C@@H](Cc1cnc[nH]1)C(=O)O [CNS, carnosine]",Feed efficiency,[2],8.89 ± 0.33^b %
same,Final body weight,[2],380.61 ± 10.47^b g
same,Weight increase,[2],163.99 ± 7.63^a g
same,AST,[3],211.00 ± 24.57^b U/L
same,Blood urea nitrogen,[3],15.4 ± 0.89 mg/dL
same,Total cholesterol,[3],52.38 ± 3.53^a mg/dL
same,Total protein,[3],4.26 ± 0.24^b g/dL
same,Triglyceride,[3],33.25 ± 3.19^b mg/dL
same,ALT,[4],63.88 ± 5.86^b U/L
same,Relative size Heart,[5]; [6],0.31 ± 0.01^a g/100 g-bw
same,Relative size Kidney,[5]; [6],0.74 ± 0.01^a g/100 g-bw
same,Relative size Liver,[5]; [6],4.14 ± 0.09^a g/100 g-bw
same,Relative size Perirenal fat,[5]; [6],1.47 ± 0.11^a g/100 g-bw
same,Relative size Spleen,[5]; [6],0.31 ± 0.02^a g/100 g-bw
same,"relative sizes of liver, kidney and spleen","[5]; carnosine 200 mg/kg-bw vs TAA group, p>0.05",does not decrease
same,liver collagen content,"collagen; CNS group (carnosine 200 mg/kg-bw) compared to TAA group, FIG. 7(B)",significantly decreased
same,collagen deposition in livers (Sirius red stain),"collagen; CNS group (carnosine 200 mg/kg-bw) vs TAA group, FIG. 7(A)",remarkably decreased
